According to ChEMBL document CHEMBL5331141:
Active and inactive are the calls of the source. The rule behind the calls is not given here.

tested on: HEK293; assay: Effect on HEK293 cells lacking human mu opioid receptor assessed as inhibition of cAMP accumulation at 1 uM; format: functional, cell-based

Row | Structure (SMILES) | Activity
1 | C=C(C)[C@@H]1CCC(C)=C[C@H]1c1c(O)cc(CCCCC)cc1O | inactive
2 | C=C(C)[C@@H]1CCC(C)=C[C@H]1c1c(O)cc(CCC)cc1O | inactive
3 | C=CCN1CC[C@]23c4c5ccc(O)c4O[C@H]2C(=O)CC[C@@]3(O)[C@H]1C5 | inactive
